According to patent US20150132342A1, “NOVEL IMMUNE ACTIVATORS: SUBSTITUTE 4-AMINOQUINAZOLINES” (The Regents of the University of California, priority 2013, published 2015):

Legend:
[1] = tested on: human PBMC; test: IL-8 release in human PBMC (ELISA); format: cell-based
Method: In vitro activities in human peripheral blood mononuclear cells (PBMC). Human PBMC were isolated from buffy coats obtained from the San Diego Blood Bank (San Diego, Calif.) as described previously.^5,6 PBMC (1×10^6/mL) were incubated with various compounds in complete RPMI (Omega Scientific) for 18 h at 37° C., 5% CO2 and culture supernatants were collected. The levels of IL-8 in the supernatants were determined by ELISA (BD Biosciences).

[2] = molecular target: T1, TLR4/MD-2/CD14 (Homo sapiens, UniProt O00206+Q9Y6Y9); test: hTLR4 HEK Blue reporter cells, NF-κB SEAP secretion (QuantiBlue OD630); format: cell-based
T1 construct: host or cells: HEK293 (HEK Blue hTLR4)
Method: In vitro assays using TLR reporter cell lines. Murine or humanTLR4 HEK Blue™ cells (Invivogen, 2.5×10^4 cells per well of a 96 well plate), or NF-κB/SEAPorter™ HEK 293 cells (Imgenex, San Diego, Calif.) for human TLR2, TLR3, TLR5, TLR7, TLR8, or TLR9 (5×10^4 cells per well of 96 well plate) were incubated with graded doses of the test compound. The culture supernatants were harvested after a 20-24 h incubation period. Secreted alkaline phosphatase (SEAP) activity in the supernatants was determined by a colorimetric assay, using either the SEAPorter Assay Kit (Imgenex, San Diego, Calif.), with absorbance read at 405 nm, or QuantiBlue (Invivogen), with absorbance read at 630 nm. In some experiments, graded concentrations of LPS-RS ([…], Invivogen) were used to test TLR4-specific binding of the hit compound.

[3] = tested on: human PBMC; test: MTT viability of human PBMC; format: cell-based; details: 10 μM, 18 h incubation
[4] = tested on: human PBMC; test: Type I IFN release by hPBMC measured in L929-ISRE luciferase reporter cells; format: cell-based; details: 10 μM, overnight; LPS 10 ng/mL comparator
Method: Type I interferon (IFN) assay. L929 cells stably expressing an IFN sensitive response element (ISRE) luciferase reporter construct were kindly provided by Dr. B. Beutler (UT Southwestern, Dallas, Tex.)^7. The bioactivity oftype I IFN in hPBMC supernatants was measured by luciferase assay using L929-ISRE cells as described previously.^7 L929-ISRE cells were plated at 5×10^4 cells per well inDulbecco's Modified Eagle Medium (Life Technologies) supplemented with 10% FCS, 100 U/mL penicillin and 100 μg/mL streptomycinin a 96-well white-walled clear-bottom plate and incubated overnight. Thus, 50 μL of supernatant was incubated with L929-ISRE cells in 50 μL of DMEM for 6 h. The luciferase activities were measured by GloBrightLuciferase Assay Buffer (Promega, Madison, Wis.).

[5] = tested on: THP-1 cells; test: CellSensor NF-κB-bla THP-1 FRET β-lactamase reporter assay; format: cell-based, human; details: graded concentrations, normalized to LPS
Method: The assay with CellSensor® NF-κB-bla THP-1 cells was performed almost identically to that with CellSensor® NF-κB-bla RAW 264.7 cells, except that cells were harvested, resuspended, and plated in RPMI (plus 10% dialyzed FBS, 0.1 mM non-essential amino acids, 1 mM sodium pyruvate, 100 U/ml penicillin and 100 μg/ml streptomycin) and incubated with drugs for only 5 h prior to addition of the 6× substrate mixture. Plates were then incubated for 2 h prior to measurement of fluorescence.

T1 sequence (O00206 24-839): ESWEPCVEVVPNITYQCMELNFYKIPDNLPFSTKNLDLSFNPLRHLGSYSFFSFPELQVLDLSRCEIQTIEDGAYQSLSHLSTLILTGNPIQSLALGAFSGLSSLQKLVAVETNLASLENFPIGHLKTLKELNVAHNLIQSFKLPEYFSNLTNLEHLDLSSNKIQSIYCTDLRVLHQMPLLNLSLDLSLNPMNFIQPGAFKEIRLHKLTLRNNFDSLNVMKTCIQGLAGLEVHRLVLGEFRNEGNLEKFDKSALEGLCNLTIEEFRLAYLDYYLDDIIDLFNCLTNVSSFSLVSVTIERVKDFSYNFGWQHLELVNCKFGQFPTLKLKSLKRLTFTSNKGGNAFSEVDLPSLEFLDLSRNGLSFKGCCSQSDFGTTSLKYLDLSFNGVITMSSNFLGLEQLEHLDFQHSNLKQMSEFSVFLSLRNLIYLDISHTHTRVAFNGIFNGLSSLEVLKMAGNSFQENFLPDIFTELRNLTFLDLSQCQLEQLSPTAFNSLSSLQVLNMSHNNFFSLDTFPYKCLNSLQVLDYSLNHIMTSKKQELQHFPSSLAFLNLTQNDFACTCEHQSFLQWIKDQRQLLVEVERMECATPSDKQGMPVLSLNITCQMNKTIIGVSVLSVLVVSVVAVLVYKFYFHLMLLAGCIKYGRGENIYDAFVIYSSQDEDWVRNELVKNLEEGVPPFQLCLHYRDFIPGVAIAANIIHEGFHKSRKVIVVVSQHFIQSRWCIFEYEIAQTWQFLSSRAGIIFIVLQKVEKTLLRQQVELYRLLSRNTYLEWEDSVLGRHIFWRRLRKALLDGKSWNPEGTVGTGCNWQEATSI
T1 sequence (Q9Y6Y9 19-160): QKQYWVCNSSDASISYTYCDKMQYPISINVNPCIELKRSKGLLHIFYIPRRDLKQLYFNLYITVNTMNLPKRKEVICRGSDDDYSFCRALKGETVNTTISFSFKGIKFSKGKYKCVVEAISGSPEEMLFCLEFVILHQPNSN

CCOC(=O)c1nc(Nc2cc(Oc3ccccc3)cc([N+](=O)[O-])c2)c2ccccc2n1 [Compound 1a, Ethyl 4-((3-nitro-5-phenoxyphenyl)amino)quinazoline-2-carboxylate]
IL-8 release (% of LPS control) at 0.5 µM ([1]; Homo sapiens, PBMC, 18 h, 0.5 μM, IL-8 release, normalized to LPS positive control=100): 22.2% | Concentration inducing detectable levels of IL-8 ([1]; hPBMC, graded concentrations): below 1 μM | IL-8 release in presence of polymyxin B ([1]; polymyxin B 10 μg/mL, overnight): not reduced | hTLR4 0.5 μM ([2]; 0.5 μM, Quantiblue OD630 of hTLR4 HEK Blue cells, normalized to LPS positive control=100): 49.1 | NF-κB activation induced by compound in presence of competitive antagonist LPS-RS ([2]; 10 μM compound, LPS-RS 12, 111, 1000 ng/mL, dose dependent): inhibited | Viability by MTT assay [3]: 112±2.1% | Release of type I IFN [4]: comparable to that of LPS | NF-κB activation potency, human THP-1 versus mouse RAW264.7 [5]: significantly more potent
